According to article PMC6796870, “A two-step lineage reprogramming strategy to generate functionally competent human hepatocytes from fibroblasts” (Cell Research, 2019):
Structures can show the parent of a compound that is named as a salt. Where two headings read alike, the source gives them in different places.

Key:
[1] = Table S9; ref 1,2 (Chen, M. et al. 2011); cited from earlier work
hiHeps [2] = assay: Toxicity assay (TC50, 24 h, minimum of four viability parameters) in hiHeps; settings: concentration giving 50% reduction of cell viability, values rounded for ease of use
HBV = HBV infection of hiHeps, antiviral drug response; assay type: cell-based, hepatitis B virus; settings: HBV-infected hiHeps; for HBV-DNA / HBV-RNA / HBV-proteins: 36 days, LAM 1 μM, ETV 0.5 μM during and after infection
hiHeps [3] = system: hiHeps
hiHeps [4] = settings: human
hiHeps [5] = assay type: cell-based, human
Experimental: The correlation between groups was evaluated by the Pearson correlation coefficient (r). b Time- and dose-dependent chronic toxicity of troglitazone in hiHeps. Mitochondrial activities were normalized to DMSO-treated cultures at corresponding day. n = 6. c Fluorescence evaluation of the pathological effects of DILI in hiHeps. Steatosis (up) and phospholipidosis (down) were evaluated in hiHeps after exposure to steatosis-causing compounds and phospholipidosis-causing compounds, respectively. Rifampin (non-steatosis/phospholipidosis-causing drug) or DMSO treatment were set as controls. For all compounds, images were captured at the concentration of 80% TC50. For all measurements, ‘n’ represents the number of biological replicates. The scale bars represent 50 μm. Data are presented as mean ± SEM

IFN-stimulated genes = assay: Expression of IFN-stimulated genes in hiHeps; assay type: cell-based, human; settings: IFN-α treatment

## CC(=O)O[C@@]12CO[C@@H]1C[C@H](O)[C@@]1(C)C(=O)[C@H](O)C3=C(C)[C@@H](OC(=O)[C@H](O)[C@@H](NC(=O)OC(C)(C)C)c4ccccc4)C[C@@](O)([C@@H](OC(=O)c4ccccc4)[C@H]21)C3(C)C [Docetaxel]
[1]
  Label: DILI concern by FDA

## CCN(CC)CCNC(=O)c1c(C)[nH]c(/C=C2\C(=O)Nc3ccc(F)cc32)c1C [Sunitinib]
[1]
  Label: DILI concern by FDA

## CCCCc1oc2ccccc2c1C(=O)c1cc(I)c(OCCN(CC)CC)c(I)c1 [amiodarone]
hiHeps [2]
  TC50: ~30 µM

## CN(C)CCCN1c2ccccc2Sc2ccc(Cl)cc21 [chlorpromazine]
hiHeps [2]
  TC50: ≈ 25 μM

## C=C1[C@H](CO)[C@@H](O)C[C@@H]1n1cnc2c(=O)[nH]c(N)nc21 [entecavir]
HBV
  HBV-DNA: greatly inhibited
  HBV-RNA: moderate effect
  HBV-proteins: moderate effect

## CC(C)C(=O)Nc1ccc([N+](=O)[O-])c(C(F)(F)F)c1 [flutamide]
HepG2 cells
  DDI effects on toxicity (rifampin, rifampin + ketoconazole): not detected
hiHeps [3]
  Toxicity after treatment with CYP3A4 inducer (rifampin): increased

## Nc1ccn([C@@H]2CS[C@H](CO)O2)c(=O)n1 [lamivudine]
HBV
  HBV-DNA: greatly inhibited
  HBV-RNA: moderate effect
  HBV-proteins: moderate effect

## CO[C@H]1/C=C/O[C@@]2(C)Oc3c(C)c(O)c4c(O)c(c(/C=N/N5CCN(C)CC5)c(O)c4c3C2=O)NC(=O)/C(C)=C\C=C\[C@H](C)[C@H](O)[C@@H](C)[C@@H](O)[C@@H](C)[C@H](OC(C)=O)[C@@H]1C [rifampin]
hiHeps [2]
  TC50: ~100 µM

## CN(C)[C@@H]1C(O)=C(C(N)=O)C(=O)[C@@]2(O)C(O)=C3C(=O)c4c(O)cccc4[C@@](C)(O)[C@H]3C[C@@H]12 [tetracycline hydrochloride]
hiHeps [4]
  TC50: ~400 µM

## Cc1c(C)c2c(c(C)c1O)CCC(C)(COc1ccc(CC3SC(=O)NC3=O)cc1)O2 (centres unmarked) [troglitazone]
hiHeps [5]
  Chronic toxicity: extensive cell death

## aflatoxin B1
HepG2 cells
  DDI effects on toxicity (rifampin, rifampin + ketoconazole): not detected
hiHeps [3]
  Toxicity after rifampin plus CYP3A4 inhibitor (ketoconazole): rescued
  Toxicity after treatment with CYP3A4 inducer (rifampin): increased

## interferon-alpha
HBV; 1000 U/mL after infection
  All major HBV markers (HBV-DNA, HBV-RNA, HBV-proteins): inhibitory effect
IFN-stimulated genes
  Expression of IFN-stimulated genes: upregulation
